Read-outs that look alike come from different tables or passages of the source.
Experiments:
[1] = biological target: T1, mouse PDGF-β receptor tyrosine kinase (Mus musculus, UniProt P05622); assay: PDGF receptor tyrosine kinase assay; format: biochemical; conditions: for IC50: read-out: Inhibition of Protein Tyrosine Kinases, PDGF, IC50; for inhibition at 50 µM: read-out: Inhibition of Protein Tyrosine Kinases, PDGF, % Inhibition
T1 construct: a fragment of DNA that codes for the intracellular tyrosine kinase domain; made in house; host or cells: Sf9 insect cells (baculovirus), cell lysate
T1 sequence (P05622 599-961 limits assumed): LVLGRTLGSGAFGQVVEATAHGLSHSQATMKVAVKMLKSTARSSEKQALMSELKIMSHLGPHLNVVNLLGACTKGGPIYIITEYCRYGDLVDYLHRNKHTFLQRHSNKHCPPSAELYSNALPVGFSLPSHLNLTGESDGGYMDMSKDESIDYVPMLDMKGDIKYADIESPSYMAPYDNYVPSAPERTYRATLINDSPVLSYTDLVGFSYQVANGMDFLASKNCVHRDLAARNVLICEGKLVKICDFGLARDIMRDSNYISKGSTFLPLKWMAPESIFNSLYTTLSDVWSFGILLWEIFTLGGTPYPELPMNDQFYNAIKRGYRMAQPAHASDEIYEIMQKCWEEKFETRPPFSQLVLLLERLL
Method in brief: (§1)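 Intracellular kinase domains expressed in baculovirus-infected SF9 cells; crude lysate used as enzyme. Inhibitor preincubated 10 min at 25 °C with lysate in pH 7.0 Hepes buffer with 10 mM MnCl2 and poly(Glu-Tyr) 4:1, then γ-32P-ATP (50 μM ATP) added for 10 min at 25 °C. TCA-precipitated 32P on filters counted, no-enzyme background subtracted.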

[2] = system: V-src kinase; assay: V-src kinase assay; format: biochemical; conditions: at 50 μM
Experimental: V-src and C-src Kinase Assays
V-src or C-src kinase is purified from baculovirus infected insect cell lysates using an antipeptide monoclonal antibody directed against the N-terminal 2-17 amino acids. The antibody, covalently linked to 0.65-μm latex beads, is added to a suspension of insect cell lysis buffer comprised of 150 mM NaCl, 50 mM Tris pH 7.5, 1 mM DTT, 1% NP-40, 2 mM EGTA, 1 mM sodium vanadate, 1 mM PMSF, 1 μg/mL each of leupeptin, pepstatin, and aprotinin. Insect cell lysate containing either the c-src or v-src protein is incubated with these beads for 3-4 hours at 4° C. with rotation. At the end of the lysate incubation, the beads are rinsed 3 times in lysis buffer, resuspended in lysis buffer containing 10% glycerol, and frozen. These latex beads are thawed, rinsed three times in assay buffer which is comprised of 40 mM tris pH 7.5, 5 mM MgCl2, and suspended in the same buffer. In a Millipore 96-well plate with a 0.65 μm polyvinylidine membrane bottom are added the reaction components: 10-μL v-src or c-src beads, 10 μL of 2.5 mg/mL poly GluTyr substrate, 5 μM ATP containing 0.2 μCi labeled ^32 P-ATP, 5μL DMSO containing inhibitors or as a solvent control, and buffer to make the final volume 125 μL. The reaction is started at room temperature by addition of the ATP and quenched 10 minutes later by the addition of 125 μL of 30% TCA, 0.1M sodium pyrophosphate for 5 minutes on ice. The plate is then filtered and the wells washed with two 250-μL aliquots of 15% TCA, 0.1M pyrophosphate. The filters are punched, counted in a liquid scintillation counter, and the data examined for inhibitory activity in comparison to a known inhibitor such as erbstatin. The method is described more fully in J. Med. Chem., 37:598-609 (1994).

[3] = biological target: T2, human FGF-1 (flg) receptor tyrosine kinase (Homo sapiens, UniProt P11362); assay: FGF receptor tyrosine kinase assay; format: biochemical; conditions: for IC50: read-out: Inhibition of Protein Tyrosine Kinases, FGF, IC50
T2 construct: a fragment of DNA that codes for the intracellular tyrosine kinase domain; made in house; host or cells: Sf9 insect cells (baculovirus), cell lysate
T2 sequence (P11362 478-767 limits assumed): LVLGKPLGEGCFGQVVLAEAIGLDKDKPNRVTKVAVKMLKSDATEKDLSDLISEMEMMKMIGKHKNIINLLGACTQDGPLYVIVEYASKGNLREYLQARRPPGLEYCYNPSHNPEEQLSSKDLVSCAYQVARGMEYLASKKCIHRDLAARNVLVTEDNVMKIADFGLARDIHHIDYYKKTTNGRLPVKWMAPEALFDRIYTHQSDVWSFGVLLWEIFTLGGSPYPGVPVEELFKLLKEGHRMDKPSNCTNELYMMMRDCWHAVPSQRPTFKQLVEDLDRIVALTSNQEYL
Method in brief: as §1

[4] = biological target: T3, C-src kinase (Homo sapiens, UniProt P12931); assay: C-src kinase assay; format: biochemical; conditions: for IC50: read-out: Inhibition of Protein Tyrosine Kinases, C-src, IC50; for inhibition at 50 µM: read-out: Inhibition of Protein Tyrosine Kinases, C-src, % Inhibition
T3 construct: made in house; host or cells: baculovirus-infected insect cells
Method in brief: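 Baculovirus-expressed c-src immunopurified on antibody-coated latex beads, assayed in 40 mM Tris pH 7.5, 5 mM MgCl2 with poly GluTyr substrate and 5 μM ATP plus 32P-ATP. Reaction 10 min at room temperature, TCA-quenched, filtered; incorporated label counted by scintillation.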

[5] = biological target: T4, Human EGF receptor tyrosine kinase (Homo sapiens, UniProt P00533); assay: EGF receptor tyrosine kinase assay; format: biochemical; conditions: for inhibition at 50 µM: read-out: Inhibition of Protein Tyrosine Kinases, EGF, % Inhibition; for IC50: read-out: Inhibition of Protein Tyrosine Kinases, EGF, IC50
T4 construct: isolated from A431 epidermoid carcinoma cells; endogenous in cells; host or cells: A431 epidermoid carcinoma cells (Triton lysate, wheat germ agglutinin eluate)
Experimental: Purification of Epidermal Growth Factor Receptor Tyrosine Kinase
Human EGF receptor tyrosine kinase was isolated from A431 epidermoid carcinoma cells by the following methods. Cells were grown in roller bottles in 50% Delbuco's Modified Eagle and 50% HAM F-12 nutrient media (Gibco) containing 10% fetal calf serum. Approximately 10^9 cells were lysed in two volumes of buffer containing 20 mM 2-(4N-[2-hydroxyethyl]piperazin-1-yl)ethanesulfonic acid, pH 7.4, 5 mM ethylene glycol bis(2-aminoethyl ether)N,N,N',N'-tetraacetic acid, 1% Triton X-100, 10% glycerol, 0.1 mM sodium orthovanadate, 5 mM sodium fluoride, 4 mM pyrophosphate, 4 mM benzamide, 1 mM dithiothreitol, 80 μg/mL aprotinin, 40 μg/mL leupeptin, and 1 mM phenylmethylsulfonyl fluoride. After centrifugation at 25,000×g for 10 minutes, the supernatant was equilibrated for 2 hours at 4° C. with 10 mL of wheat germ agglutinin sepharose that was previously equilibrated with 50 mM Hepes, 10% glycerol, 0.1% Triton X-100 and 150 mM NaCl, pH 7.5, (equilibration buffer). Contaminating proteins were washed from the resin with 1M NaCl in equilibration buffer, and the enzyme was eluted with 0.5M N-acetyl-1-D-glucosamine in equilibration buffer.
Determination of IC50 Values
The reaction was terminated by the addition of 2 mL of 75 mM phosphoric acid and passed through a 2.5-cm phosphocellulose filter disc to bind the peptide. The filter was washed five times with 75 mM phosphoric acid and placed in a vial along with 5 mL of scintillation fluid (Ready gel Beckman).

[6] = system: PDGF receptor; assay: PDGF receptor autophosphorylation in RASMC; format: cell-based, rat; conditions: PDGF-BB 30 ng/mL, read-out: Inhibition of PDGF Stimulated Receptor Auto Phosphorylation (IC50)
Experimental: Rat aorta smooth muscle cells (RASMC) were isolated from the thoracic aorta of rats and explanted according to the method of Ross, J. Cell. […] Cells were grown in Dulbecco's modified Eagle's medium (DMEM, Gibco) containing 10% fetal calf serum (FBS, Hyclone, Logan, Utah), 1% glutamine (Gibco) and 1% penicillin/streptomycin (Gibco). Cells were identified as smooth muscle cells by their "hill and valley" growth pattern and by fluorescent staining with a monoclonal antibody specific for SMC μ-actin (Sigma). RASMC were used between passages 5 and 20 for all experiments. Test compounds were prepared in dimethylsulfoxide (DMSO) in order to achieve consistency in the vehicle and to ensure compound solubility. Appropriate DMSO controls were simultaneously evaluated with the test compounds.
PDGF Receptor Autophosphorylation
RASMC were grown to confluency in 100 mm dishes. Growth medium was removed and replaced with serum-free medium and cells were incubated at 37° C. for an additional 24 hours. Test compounds were then added directly to the medium and cells incubated for an additional 2 hours. After 2 hours, PDGF-BB was added at a final concentration of 30 ng/mL for 5 minutes at 37° C. to stimulated autophosphorylation of the PDGF receptor. Following growth factor treatment, the medium was removed, and cells were washed with cold phosphate-buffered saline and immediately lysed with 1 mL of lysis buffer (50 mM HEPES[pH 7.5], 150 mM NaCl, 10% glycerol, 1% Triton X-100, 1 mM EDTA, 1 mMEGTA, 50 mM NaF, 1 mM sodium orthovanadate, 30 mM p-nitrophenyl phosphate, 10 mM sodium pyrophosphate, 1 mM phenylmethyl sulfonyl fluoride, 10 μg/mL aprotinin, and 10 μg/mL leupeptin). Lysates were centrifuged at 10,000×g for 10 minutes. […] Following the incubation, protein-A-sepharose beads were added for 2 hours with continuous mixing, and immune complexes bound to the beads washed 4 times with 1 mL lysis wash buffer. Immune complexes were solubilized in 30 μL of Laemmli sample buffer and electrophoresed in 4-20% SDS polyacrylamide gels. Following electrophoresis, separated proteins were transferred to nitrocellulose and immunoblotted with anti-phosphotyrosine antiserum. […] IC50 values were generated from the densitometric data.

[7] = system: Rat aorta smooth muscle cells (RASMC); assay: [3H]-Thymidine incorporation assay in RASMC; format: cell-based; conditions: read-out: Inhibition of Growth Factor Stimulated Uptake of [3H]-thymidine (IC50)
Experimental: Cell Culture Rat aorta smooth muscle cells (RASMC) were isolated from the thoracic aorta of rats and explanted according to the method of Ross, J. Cell. Biol., 30:172-186 (1971). Cells were grown in Dulbecco's modified Eagle's medium (DMEM, Gibco) containing 10% fetal calf serum (FBS, Hyclone, Logan, Utah), 1% glutamine (Gibco) and 1% penicillin/streptomycin (Gibco). Cells were identified as smooth muscle cells by their "hill and valley" growth pattern and by fluorescent staining with a monoclonal antibody specific for SMC […] (Sigma). RASMC were used between passages 5 and 20 for all experiments. Test compounds were prepared in dimethylsulfoxide (DMSO) in order to achieve consistency in the vehicle and to ensure compound solubility. Appropriate DMSO controls were simultaneously evaluated with the test compounds. […] RASMC were plated into a 24-well plate (30,000 cells/well) in DMEM with 10% FBS. After 4 days, cells reached confluence and were made quiescent by incubation in DMEM/F12 medium (Gibco) containing 0.2% FBS for another 2 days. […] […] The acid-insoluble fraction was lysed in 0.75 mL 0.25N NaOH and the radioactivity determined by liquid scintillation counting. IC50 values were determined graphically.

1-[2-Amino-6-(2,6-dichlorophenyl)-pyrido[2,3-d]pyrimidin-7-yl]-3-(3-morpholin-4-yl-propyl)-thiourea [Example 23]
IC50 [1]: 4510 nM | Inhibition of Protein Tyrosine Kinases, V-src, % Inhibition [2]: 10.2% | IC50 [3]: 291 nM | IC50 [4]: 613 nM | Inhibition of Protein Tyrosine Kinases, EGF, % Inhibition ([5]; at 50 μM): 104.8%

Cc1ccccc1-c1cc2cnc(NC(=O)NC(C)(C)C)nc2nc1NC(=O)NC(C)(C)C [Example 4, 1-tert-Butyl-3-[7-(3-tert-butylureido)-6-o-tolyl-pyrido[2,3-d]pyrimidin-2-yl]urea]
inhibition at 50 µM [1]: 31.9% | Inhibition of Protein Tyrosine Kinases, V-src, % Inhibition [2]: 3.1% | inhibition at 50 µM ([3]; at 50 μM, read-out: Inhibition of Protein Tyrosine Kinases, FGF, % Inhibition): 21.5% | inhibition at 50 µM [4]: 33.6% | inhibition at 50 µM ([5]; at 50 μM): 36.6%

Cc1ccccc1-c1cc2cnc(N)nc2nc1NC(=O)NC(C)(C)C [Example 5, 1-[2-Amino-6-o-tolyl-pyrido[2,3-d]pyrimidin-7-yl]-3-tert-butylurea]
IC50 [1]: 466 nM | Inhibition of Protein Tyrosine Kinases, V-src, % Inhibition [2]: 23.3% | IC50 [3]: 1400 nM | IC50 [4]: 407 nM | IC50 [5]: 928 nM

Cc1cccc(C)c1-c1cc2cnc(N)nc2nc1NC(=O)NC(C)(C)C [Example 6, 1-[2-Amino-6-(2,6-dimethylphenyl)-pyrido[2,3-d]pyrimidin-7-yl]-3-tert-butylurea]
Inhibition of Protein Tyrosine Kinases, V-src, % Inhibition [2]: 39.8% | IC50 [6]: 350 nM | IC50 [3]: 397 nM | IC50 [5]: 457 nM

CC(=O)Nc1ncc2cc(-c3c(Cl)cccc3Cl)c(NC(C)=O)nc2n1 [Example 7, N-[2-Acetylamino-6-(2,6-dichlorophenyl)-pyrido[2,3-d]pyrimidin-7-yl]-acetamide]
inhibition at 50 µM [1]: 33.5% | Inhibition of Protein Tyrosine Kinases, V-src, % Inhibition [2]: 7.6% | IC50 [3]: 17900 nM | IC50 [4]: 2300 nM | inhibition at 50 µM ([5]; at 50 μM): 25.1%

Cc1ccccc1-c1cc2cnc(N)cc2nc1N [Example 16, 3-o-Tolyl-[1,6]naphthyridine-2,7-diamine]
IC50 [1]: 10700 nM | Inhibition of Protein Tyrosine Kinases, V-src, % Inhibition [2]: 10.3% | IC50 [3]: 9210 nM | IC50 [4]: 1380 nM | IC50 [5]: 7080 nM

Nc1cc2nc(N)c(-c3ccccc3Cl)cc2cn1 [Example 17, 3-(2-Chlorophenyl)-[1,6]naphthyridine-2,7-diamine]
IC50 [1]: 27000 nM | Inhibition of Protein Tyrosine Kinases, V-src, % Inhibition [2]: 5.3% | IC50 [3]: 4500 nM | IC50 [4]: 2760 nM | IC50 [5]: 7220 nM

CNc1ncc2cc(-c3ccccc3)c(NC)nc2n1 [Example 19, N^2,N^7 -Dimethyl-6-phenyl-pyrido[2,3-d]pyrimidine-2,7-diamine]
inhibition at 50 µM [1]: 47.7% | Inhibition of Protein Tyrosine Kinases, V-src, % Inhibition [2]: 5.2% | IC50 [3]: 16900 nM | inhibition at 50 µM [4]: 52.8% | inhibition at 50 µM ([5]; at 50 μM): 26.1%

CCN(CC)CCCNc1ncc2cc(-c3c(Cl)cccc3Cl)c(NC(=O)NC(C)(C)C)nc2n1 [Example 21, 1-tert-Butyl-3-[6-(2,6-dichlorophenyl)-2-(3-diethylamino-propylamino)-pyrido[2,3-d]pyrimidin-7-yl]-urea]
IC50 [1]: 660 nM | Inhibition of Protein Tyrosine Kinases, V-src, % Inhibition [2]: 49.4% | IC50 [6]: 1800 nM | IC50 [3]: 82.4 nM | IC50 [4]: 73 nM | IC50 [5]: 6970 nM

CCNC(=O)Nc1nc2nc(N)ncc2cc1-c1c(Cl)cccc1Cl [Example 22, 1-[2-Amino-6-(2,6-dichlorophenyl)-pyrido[2,3-d]pyrimidin-7-yl]-3-ethylurea]
IC50 [1]: 1300 nM | Inhibition of Protein Tyrosine Kinases, V-src, % Inhibition [2]: 46.9% | IC50 [6]: 3730 nM | IC50 [3]: 128 nM | IC50 [4]: 77 nM | inhibition at 50 µM ([5]; at 50 μM): 90.4%

Nc1ncc2cc(-c3c(Cl)cccc3Cl)c(NC3=NCCO3)nc2n1 [Example 24, 2-[2-Amino-6-(2,6-dichlorophenyl)-pyrido[2,3-d]pyrimidin-7-yl]-amino-4,5-dihydro-oxazole]
IC50 [1]: 11400 nM | IC50 [3]: 7290 nM | IC50 [4]: 214 nM | inhibition at 50 µM ([5]; at 50 μM): 58.3%

CCCCNC(=O)Nc1ncc2cc(-c3c(Cl)cccc3Cl)c(NC(=O)NCCCC)nc2n1 [Example 25, 1-Butyl-3-[7-(3-butyl-ureido)-6-(2,6-dichlorophenyl)-pyrido[2,3-d]pyrimidin-2-yl]-urea]
IC50 [1]: 6040 nM | Inhibition of Protein Tyrosine Kinases, V-src, % Inhibition [2]: 0.0% | IC50 [3]: 11800 nM | IC50 [4]: 207 nM | inhibition at 50 µM ([5]; at 50 μM): 57.5%

CN1CCN(CCCNc2ncc3cc(-c4c(Cl)cccc4Cl)c(NC(=O)NC(C)(C)C)nc3n2)CC1 [Example 52, 1-tert-Butyl-3-{6-(2,6-dichlorophenyl)-2-[3-(4-methyl-piperazin-1-yl)-propylamino]-pyrido[2,3-d]pyrimidin-7-yl}-urea]
IC50 [6]: 241 nM | IC50 ([7]; FGF stimulated): 400 nM | IC50 ([7]; PDGF stimulated): 450 nM

CC(C)(C)NC(=O)Nc1nc2nc(N)ncc2cc1-c1c(Br)cccc1Br [Example 88, 1-[2-Amino-6-(2,6-dibromo-phenyl)-pyrido[2,3-d]pyrimidin-7-yl]-3-tert-butyl-urea]
IC50 [1]: 711 nM | IC50 [3]: 148 nM | IC50 [4]: 213 nM | inhibition at 50 µM ([5]; at 50 μM): 34.4%

CCNC(=O)Nc1nc2nc(NCCCCN(CC)CC)ncc2cc1-c1c(Cl)cccc1Cl [Example 124, 1-[6-(2,6-Dichlorophenyl)-2-(4-diethylamino-butyl-amino)-pyrido[2,3-d]pyrimidin-7-yl]-3-ethyl-urea]
IC50 [6]: 245 nM | IC50 ([7]; FGF stimulated): 930 nM | IC50 ([7]; PDGF stimulated): 550 nM

From US5733913A, “6-Aryl pyrido[2,3-d] pyrimidines and naphthyridines for inhibiting protein tyrosine kinase mediated cellular proliferation” (priority 1995, dated 1998)
